The target of assay [1] is human SOS1 (loading of human K-Ras^G12C-GDP with fluorescent GTP-analog) (Homo sapiens, UniProt Q07889). In words: Biochemical assay 3: K-Ras^G12C activation assay by hSOS1 (HTRF). The conditions noted are these: no GTP; for inhibition at 20 µM: read-out: Assay 3 (KRAS-Activation by SOS no GTP) activity expressed as % inhibition at 20 μM; for IC50: read-out: Assay 3 (KRAS-Activation by SOS no GTP) activity expressed as IC50. A general note: Time-resolved FRET reads energy transfer from a long-lived donor to a nearby acceptor.

For assay [2], the target named is K-Ras^G12C : hSOS1 interaction (Homo sapiens, UniProt Q07889). Put plainly: Biochemical assay 1: K-Ras^G12C interaction assay with hSOS1 (HTRF). It counts as binding. The conditions noted are these: read-out: Assay 1 (KRAS-SOS Interaction) activity expressed as IC50.

Where a name gives a salt, the structure may show the parent alone.

A word on the inhibition: it is the percentage by which the read-out fell short of the control. One may read the IC50 as the point on the concentration scale where inhibition reaches its midpoint. Consider `COc1cc2nc(C)nc(NC(C)c3ccc(-c4cccc5sc(C(N)=O)c(N)c45)s3)c2cc1OC` (stereo not drawn) [Example 278, 3-amino-4-(5-{1-[(6,7-dimethoxy-2-methylquinazolin-4-yl)amino]ethyl}thiophen-2-yl)-1-benzothiophene-2-carboxamide], for which the inhibition at 20 µM in assay [1] stood at 43%. In assay [2], the IC50 came to 12.5 µM.

In the case of `COC(=O)CNCc1ccccc1-c1ccc(C(C)Nc2nc(C)nc3cc(OC)c(OC)cc23)s1` (stereo not drawn) [Example 281, methyl N-[2-(5-{1-[(6,7-dimethoxy-2-methylquinazolin-4-yl)amino]ethyl}thiophen-2-yl)benzyl]glycinate], the half-maximal inhibitory concentration (IC50) in assay [1] came out at 0.367 µM; in assay [2], 0.559 µM.

On to `COc1cc2nc(C)nc(NC(C)c3ccc(-c4ccccc4CNCC(=O)N4CCOCC4)s3)c2cc1OC` (stereo not drawn) [Example 285, 2-{[2-(5-{1-[(6,7-dimethoxy-2-methylquinazolin-4-yl)amino]ethyl}thiophen-2-yl)benzyl]amino}-1-(morpholin-4-yl)ethanone], for which the results for the IC50 in assay [1] and in assay [2] were 0.161 µM and 0.203 µM, respectively.

With `COc1cc2nc(C)nc(NC(C)c3ccc(-c4cc(C)n(C)c4C#N)s3)c2cc1OC` (stereo not drawn) [Example 286, 3-(5-{1-[(6,7-dimethoxy-2-methylquinazolin-4-yl)amino]ethyl}thiophen-2-yl)-1,5-dimethyl-1H-pyrrole-2-carbonitrile], the inhibition at 20 µM in assay [1] stood at 36%. Besides, in assay [2], the 50% inhibitory concentration (IC50) was found to be 16.7 µM.

In the case of `COc1cc2nc(C)nc(NC(C)c3ccc(-c4cscc4C#N)s3)c2cc1OC` (stereo not drawn) [Example 287, 5-{1-[(6,7-dimethoxy-2-methylquinazolin-4-yl)amino]ethyl}-2,3′-bithiophene-4′-carbonitrile], the IC50 worked out at 5.76 µM in assay [1] and 5.88 µM in assay [2].

For `CCN(CC)Cc1ccccc1-c1ccc(C(C)Nc2nc(C)nc3cc(OC)c(OC)cc23)s1` (stereo not drawn) [Example 288, N-[1-(5-{2-[(diethylamino)methyl]phenyl}thiophen-2-yl)ethyl]-6,7-dimethoxy-2-methylquinazolin-4-amine], the IC50 was 0.247 µM in assay [1] and 0.17 µM in assay [2].

In the case of `COc1cc2nc(C)nc(NC(C)c3ccc(-c4ccccc4CN4CCCC(C(N)=O)C4)s3)c2cc1OC` (stereo not drawn) [Example 290, 1-[2-(5-{1-[(6,7-dimethoxy-2-methylquinazolin-4-yl)amino]ethyl}thiophen-2-yl)benzyl]piperidine-3-carboxamide], the concentration for half-maximal inhibition (IC50) amounted to 0.159 µM in assay [1] and 0.176 µM in assay [2].

`COc1cc2nc(C)nc(NC(C)c3ccc(-c4ccccc4CN(C)CC(F)F)s3)c2cc1OC` (stereo not drawn) [Example 291, N-{1-[5-(2-{[(2,2-difluoroethyl)(methyl)amino]methyl}phenyl)thiophen-2-yl]ethyl}-6,7-dimethoxy-2-methylquinazolin-4-amine]: the half-maximal inhibitory concentration (IC50) in assay [1] was determined as 2.23 µM; in assay [2], 1.12 µM.

`COc1cc2nc(C)nc(NC(C)c3ccc(-c4cc(Cl)ccc4CN)s3)c2cc1OC` (stereo not drawn) [Example 292, N-[1-{5-[2-(aminomethyl)-5-chlorophenyl]thiophen-2-yl}ethyl]-6,7-dimethoxy-2-methylquinazolin-4-amine]: the half-maximal inhibitory concentration (IC50) turned out to be 0.0413 µM in assay [1] and 0.0315 µM in assay [2].

For `COc1cc2nc(C)nc(NC(C)c3ccc(-c4ccc(F)cc4CNC(=O)c4ncc[nH]4)s3)c2cc1OC` (stereo not drawn) [Example 293, N-[2-(5-{1-[(6,7-dimethoxy-2-methylquinazolin-4-yl)amino]ethyl}thiophen-2-yl)-5-fluorobenzyl]-1H-imidazole-2-carboxamide], the IC50 was found to be 8.2 µM in assay [1] and 2.75 µM in assay [2].

As for `COc1cc2nc(C)nc(NC(C)c3ccc(-c4ccc(F)cc4CNC(=O)c4cnc[nH]4)s3)c2cc1OC` (stereo not drawn) [Example 294, N-[2-(5-{1-[(6,7-dimethoxy-2-methylquinazolin-4-yl)amino]ethyl}thiophen-2-yl)-5-fluorobenzyl]-1H-imidazole-5-carboxamide], the IC50 was 8.58 µM in assay [1] and 3.1 µM in assay [2].

In the case of `COc1cc2nc(C)nc(NC(C)c3ccc(-c4ccc(F)cc4CNC(=O)CNCC(F)(F)F)s3)c2cc1OC` (stereo not drawn) [Example 295, N-[2-(5-{1-[(6,7-dimethoxy-2-methylquinazolin-4-yl)amino]ethyl}thiophen-2-yl)-5-fluorobenzyl]-N^2-(2,2,2-trifluoroethyl)glycinamide], the IC50 turned out to be 2.78 µM in assay [1] and 0.98 µM in assay [2].

As to `COc1cc2nc(C)nc(NC(C)c3ccc(-c4ccccc4CNCCO)s3)c2cc1OC` (stereo not drawn) [Example 297, 2-{[2-(5-{1-[(6,7-dimethoxy-2-methylquinazolin-4-yl)amino]ethyl}thiophen-2-yl)benzyl]amino}ethanol], the figures for the half-inhibitory concentration (IC50) in assay [1] and in assay [2] were 0.0606 µM and 0.046 µM, respectively.

On to `COc1cc2nc(C)nc(NC(C)c3ccc(-c4ccccc4CN(C)CCO)s3)c2cc1OC` (stereo not drawn) [Example 298, 2-{[2-(5-{1-[(6,7-dimethoxy-2-methylquinazolin-4-yl)amino]ethyl}thiophen-2-yl)benzyl](methyl)amino}ethanol], for which the IC50 in assay [1] was found to be 0.0588 µM; in assay [2] it was 0.0472 µM.

In the case of `COc1cc2nc(C)nc(NC(C)c3ccc(-c4ccc(F)cc4CNC(=O)CNc4ccccc4)s3)c2cc1OC` (stereo not drawn) [Example 299, N-[2-(5-{1-[(6,7-dimethoxy-2-methylquinazolin-4-yl)amino]ethyl}thiophen-2-yl)-5-fluorobenzyl]-N^2-phenylglycinamide], the IC50 in assay [1] came to 1.88 µM; in assay [2], 0.948 µM.

Take `COc1cc2nc(C)nc(NC(C)c3ccc(-c4ccccc4CNCC(F)(F)F)s3)c2cc1OC` (stereo not drawn) [Example 300, 6,7-di methoxy-2-methyl-N-{1-[5-(2-{[(2,2,2-trifluoroethyl)amino]methyl}phenyl)thiophen-2-yl]ethyl}quinazolin-4-amine]: the figures for the IC50 in assay [1] and in assay [2] were 5.08 µM and 3.15 µM, respectively.

In the case of `COc1cc2nc(C)nc(NC(C)c3ccc(-c4ccccc4CNc4ccccn4)s3)c2cc1OC` (stereo not drawn) [Example 301, 6,7-di methoxy-2-methyl-N-[1-(5-{2-[(pyridin-2-ylamino)methyl]phenyl}thiophen-2-yl)ethyl]quinazolin-4-amine], the half-maximal inhibitory concentration (IC50) is 1.93 µM in assay [1] and 0.799 µM in assay [2].

Take `COc1cc2nc(C)nc(NC(C)c3ccc(-c4ccccc4CNc4cc[nH]n4)s3)c2cc1OC` (stereo not drawn) [Example 302, 6,7-dimethoxy-2-methyl-N-[1-(5-{2-[(1H-pyrazol-3-ylamino)methyl]phenyl}thiophen-2-yl)ethyl]quinazolin-4-amine]: the IC50 in assay [1] is 1.54 µM; in assay [2] it was 0.787 µM.

With `COc1cc2nc(C)nc(NC(C)c3ccc(-c4ccccc4CNCC(=O)N4CCc5ccccc5C4)s3)c2cc1OC` (stereo not drawn) [Example 303, 1-(3,4-dihydroisoquinolin-2(1H)-yl)-2-{[2-(5-{1-[(6,7-dimethoxy-2-methylquinazolin-4-yl)amino]ethyl}thiophen-2-yl)benzyl]amino}ethanone], the IC50 in assay [1] stood at 0.88 µM; in assay [2] it was 0.724 µM.

As for `COc1cc2nc(C)nc(NC(C)c3ccc(-c4ccc(F)cc4CNCc4nccn4C)s3)c2cc1OC` (stereo not drawn) [Example 304, N-[1-{5-[4-fluoro-2-({[(1-methyl-1H-imidazol-2-yl)methyl]amino}methyl)phenyl]thiophen-2-yl}ethyl]-6,7-dimethoxy-2-methylquinazolin-4-amine], the 50% inhibitory concentration (IC50) worked out at 0.399 µM in assay [1] and 0.417 µM in assay [2].

Consider `COc1cc2nc(C)nc(NC(C)c3ccc(-c4ccccc4CN4CCNCC4)s3)c2cc1OC` (stereo not drawn) [Example 305, 6,7-dimethoxy-2-methyl-N-[1-{5-[2-(piperazin-1-ylmethyl)phenyl]thiophen-2-yl}ethyl]quinazolin-4-amine hydrochloride], for which the concentration for half-maximal inhibition (IC50) worked out at 0.0584 µM in assay [1] and 0.0616 µM in assay [2].

In the case of `COc1cc2nc(C)nc(NC(C)c3ccc(-c4ccc(F)cc4CNC(C)=O)s3)c2cc1OC` (stereo not drawn) [Example 307, N-[2-(5-{1-[(6,7-dimethoxy-2-methylquinazolin-4-yl)amino]ethyl}thiophen-2-yl)-5-fluorobenzyl]acetamide], the IC50 in assay [1] was determined as 0.78 µM; in assay [2], 0.589 µM.

Turning to `COc1cc2nc(C)nc(NC(C)c3ccc(-c4ccccc4CN4CCN(C)CC4)s3)c2cc1OC` (stereo not drawn) [Example 308, 6,7-dimethoxy-2-methyl-N-[1-(5-{2-[(4-methylpiperazin-1-yl)methyl]phenyl}thiophen-2-yl)ethyl]quinazolin-4-amine], the IC50 was 0.22 µM in assay [1] and 0.26 µM in assay [2].

For `COc1cc2nc(C)nc(NC(C)c3ccc(-c4ccccc4CN[C@H]4CCN(C)C4=O)s3)c2cc1OC` (stereo partly drawn) [Example 309, (3S)-{[2-(5-{1-[(6,7-dimethoxy-2-methylquinazolin-4-yl)amino]ethyl}thiophen-2-yl)benzyl]amino}-1-methylpyrrolidin-2-one], the 50% inhibitory concentration (IC50) in assay [1] amounted to 0.88 µM; in assay [2], 1.32 µM.

On to `COc1cc2nc(C)nc(NC(C)c3ccc(-c4ccc(F)cc4CNC(=O)c4cc[nH]n4)s3)c2cc1OC` (stereo not drawn) [Example 310, N-[2-(5-{1-[(6,7-dimethoxy-2-methylquinazolin-4-yl)amino]ethyl}thiophen-2-yl)-5-fluorobenzyl]-1H-pyrazole-3-carboxamide], for which the results for the IC50 in assay [1] and in assay [2] were 5.76 µM and 5.82 µM, respectively.

Consider `COc1cc2nc(C)nc(NC(C)c3ccc(-c4ccccc4CN4CCOCC4)s3)c2cc1OC` (stereo not drawn) [Example 311, 6,7-dimethoxy-2-methyl-N-[1-{5-[2-(morpholin-4-ylmethyl)phenyl]thiophen-2-yl}ethyl]quinazolin-4-amine], for which the 50% inhibitory concentration (IC50) in assay [1] stood at 0.629 µM; in assay [2], 0.763 µM.

As for `COc1cc2nc(C)nc(NC(C)c3ccc(-c4ccccc4CN4CC(O)C4)s3)c2cc1OC` (stereo not drawn) [Example 312, 1-[2-(5-{1-[(6,7-dimethoxy-2-methylquinazolin-4-yl)amino]ethyl}thiophen-2-yl)benzyl]azetidin-3-ol], the values for the IC50 in assay [1] and in assay [2] were 0.0732 µM and 0.0682 µM, respectively.

(Values after US20240083857A1, “2-Methyl-Quinazolines” (Bayer Pharma Aktiengesellschaft, priority 2017, published 2024).)
